Test system: Human immunodeficiency virus 1
Assay: Concentration required to inhibit 50% viral production of human immunodeficiency virus type 1 (HIV-1-IIIB)
Type: functional, organism-based

IC50 [nM] | Structure (SMILES)
1400 | CC1Oc2c3c(c4c(-c5ccccc5)cc(=O)oc4c2C(O)C1C)OC(C)(C)C=C3 (stereo not given)
1100 | CC(C)Nc1cccnc1N1CCN(C(=O)c2cc3cc(NS(C)(=O)=O)ccc3[nH]2)CC1 [DELAVIRDINE]
26 | CC(=O)c1ccccc1NC(C(N)=O)c1c(Cl)cccc1Cl (stereo not given)
0.36 | O=C1Nc2ccc(Cl)cc2[C@@](C#CC2CC2)(C(F)(F)F)N1
5000 | O=C(O)C1=CC(=C(c2ccc(O)c(C(=O)O)c2)c2ccc(O)c(C(=O)O)c2)C=CC1=O [AURINTRICARBOXYLIC ACID]
10000 | CN1C(=O)c2ccccc2C1(N)c1ccccc1 (stereo not given)
50 | CCC1=CC(NCc2nc3c(C)ccc(C)c3o2)C(=O)N=C1C (stereo not given)
33 | CC(C)=CCN1Cc2cc(Cl)cc3nc(S)n(c23)CC1C (stereo not given) [TIBO]
50 | Fc1cccc(Cl)c1CCNC(=S)Nc1nccs1
10 | Fc1cccc(F)c1CC/N=C(\S)Nc1ccc(Br)cn1
100 | CC(=O)c1ccc(C)cc1NC(C(N)=O)c1c(Cl)cccc1Cl (stereo not given) [LOVIRIDE]
6 | CC(C)c1c(Cc2ccccc2)n(COCc2ccccc2)c(=O)[nH]c1=O
1300 | S=C(NCCc1ccccc1)Nc1nccs1
2.93 | O=C1Nc2ccc(Cl)cc2[C@@](C#CC2CC2)(C(F)(F)F)O1 [EFAVIRENZ]
8 | CCOCn1c(Cc2ccccc2)c(C(C)C)c(=O)[nH]c1=O [EMIVIRINE]
9 | CC(C)=CCOc1cc(NC(=S)c2ccoc2C)ccc1Cl [UC 781]
3 | CC(C)=CCN1Cc2c(Cl)ccc3[nH]c(=S)n(c23)C[C@@H]1C [TIVIRAPINE]

IC50 [nM] | Structure (SMILES)
33 | NC(=O)C(Nc1ccccc1[N+](=O)[O-])c1c(Cl)cccc1Cl (stereo not given)
1600 | Cc1c(Sc2ccccc2)n(COCCO)c(=S)[nH]c1=O
0.4 | O=C1Nc2ccc(Cl)cc2C(/C=C/C2CC2)(C(F)(F)F)N1 (stereo not given)
420 | CC(=O)c1ccc(C)cc1NC(C(N)=O)c1c(Br)cccc1Br (stereo not given)
4700 | Cc1c(O)nc(OC2CCCCC2)nc1Cc1ccccc1
2.7 | Cc1cc(C)cc(Cc2c(C(C)C)c(=O)[nH]c(=O)n2COCCO)c1
16 | O=C1c2ccccc2C2(c3ccccc3)SCCN12 (stereo not given)
20 | S=C(NCCc1ccccn1)Nc1ccc(Br)cn1 [TROVIRDINE]
400 | CCN1c2cc([N+](=O)[O-])ccc2N(C)C(=O)c2cccnc21
7000 | Cc1c(Sc2ccccc2)n(COCCO)c(=O)[nH]c1=O [HEPT]
62000 | C=CCN1Cc2cccc3[nH]c(=O)n(c23)CC1C (stereo not given)
190 | CCN1c2ncccc2-c2ncc(C)n2-c2ccc(OC)nc21
16000 | CCCCCC=C(c1cc(Br)c(OC)c(C(=O)OC)c1)c1cc(Br)c(OC)c(C(=O)OC)c1
6 | COc1ccc2c(c1)N(C(=O)OC(C)C)C(CSC)C(S)=N2 (stereo not given)
42 | CC1=C(C(=O)Nc2ccc(Cl)c(C(=O)OC(C)C)c2)SCCO1
29 | CC(C)OC(=O)c1cc(NC(=S)OC(C)C)ccc1Cl

Structure (SMILES) | IC50 [nM]
Cc1ccnc2c1NC(=O)c1cccnc1N2C1CC1 [NEVIRAPINE] | 200
CC(C)c1nc(COC(N)=O)n(Cc2ccncc2)c1Sc1cc(Cl)cc(Cl)c1 [CAPRAVIRINE] | 3.1

— ChEMBL document CHEMBL1143567, “Hierarchical database screenings for HIV-1 reverse transcriptase using a pharmacophore model, rigid docking, solvation docking, and MM-PB/SA” (J Med Chem, 2005)
